Reference: the supplement of paper PMC10307832

Tests used:
Experiment in all cases: relative viability (nuclei count vs DMSO), 5 days (fraction); higher = more cells survive
[1] = compound: C1CSC2=C(C(=O)N1)SC3=C2C=C(C=C3)O [kb NB 142-70] + CCNC(=O)c1noc(-c2cc(C(C)C)c(O)cc2O)c1-c1ccc(CN2CCOCC2)cc1 [Luminespib] (partner 0.01 µM)
Procedure, shortened: (§1)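 Lung cancer cell lines in 1536-well plates got either a single drug or a fixed anchor-drug dose together with five library-drug doses (not always all listed) in √10 steps, by pin tool, on the day after seeding. Nuclei were counted after 5 days, and relative viability is the treated-to-vehicle ratio of nuclei counts. Values are medians of duplicate plates.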

kb NB 142-70 + AZD7762 = compound: C1CSC2=C(C(=O)N1)SC3=C2C=C(C=C3)O [kb NB 142-70] + NC(=O)Nc1cc(-c2cccc(F)c2)sc1C(=O)N[C@H]1CCCNC1 [AZD7762] (partner 0.2 µM)
Procedure, shortened: as §1

[2] = compound: NCC(=O)Nc1ccc(-n2nc(C(F)(F)F)cc2-c2ccc3c(ccc4ccccc43)c2)cc1 + CC(=O)c1c(C)c2cnc(Nc3ccc(N4CCNCC4)cn3)nc2n(C2CCCC2)c1=O [Palbociclib] (partner 0.5 µM)
Procedure, shortened: as §1

[3] = compound: C1CSC2=C(C(=O)N1)SC3=C2C=C(C=C3)O [kb NB 142-70] + O=C(CCCCCCC(=O)Nc1ccccc1)NO [Vorinostat] (partner 1 µM)
Procedure, shortened: as §1

[4] = compound: C1CSC2=C(C(=O)N1)SC3=C2C=C(C=C3)O [kb NB 142-70] + CC(C)C[C@H](NC(=O)[C@H](Cc1ccccc1)NC(=O)c1cnccn1)B(O)O [Bortezomib] (partner 0.002 µM)
Procedure, shortened: as §1

Cell Line | relative viability ([1]; first compound 0.1 µM) | relative viability ([1]; first compound 1 µM) | relative viability ([1]; first compound 3.162 µM) | relative viability (kb NB 142-70 + AZD7762; first compound 0.1 µM) | relative viability (kb NB 142-70 + AZD7762; first compound 1 µM) | relative viability (kb NB 142-70 + AZD7762; first compound 3.162 µM) | relative viability ([2]; first compound 0.02 µM) | relative viability ([2]; first compound 0.06325 µM) | relative viability ([2]; first compound 0.2 µM) | relative viability ([2]; first compound 0.6325 µM) | relative viability ([2]; first compound 2 µM) | relative viability ([3]; first compound 0.1 µM) | relative viability ([3]; first compound 1 µM) | relative viability ([3]; first compound 3.162 µM) | relative viability ([4]; first compound 0.1 µM) | relative viability ([4]; first compound 1 µM) | relative viability ([4]; first compound 3.162 µM)
NCI-H522 | 1.18 | 1.03 | 0.974 | 0.959 | 0.753 | 0.746 | 0.844 | 0.996 | 0.998 | 0.934 | 0.992 | 0.983 | 0.835 | 0.794 | – | – | –
NCI-H838 | 0.374 | 0.339 | 0.218 | 0.938 | 0.925 | 1 | 0.228 | 0.237 | 0.224 | 0.192 | 0.213 | 0.782 | 0.77 | 0.778 | 0.83 | 0.777 | 0.877
SW 900 | 0.187 | 0.181 | 0.177 | 0.663 | 0.758 | 0.879 | 0.513 | 0.661 | 0.534 | 0.535 | 0.641 | 0.597 | 0.593 | 0.388 | – | – | –
NCI-H1792 | 0.429 | 0.582 | 0.553 | 0.803 | 0.907 | 0.857 | 0.651 | – | 0.696 | 0.591 | 0.66 | – | – | – | 0.992 | 0.988 | 1.01
NCI-H1703 | – | – | – | 0.125 | 0.134 | 0.134 | – | – | – | – | – | – | – | – | 0.255 | 0.361 | 0.209
SK-LU-1 | 0.198 | 0.199 | 0.204 | – | – | – | 0.447 | 0.442 | 0.404 | 0.372 | 0.434 | 0.831 | 0.642 | 0.371 | 1.19 | 1.05 | 0.839
COR-L 105 | 0.603 | 0.634 | 0.712 | – | – | – | 0.4 | 0.399 | 0.411 | 0.413 | 0.432 | 0.812 | 0.831 | 0.776 | 0.871 | 0.828 | 0.903
Calu-6 | – | – | – | – | – | – | – | – | – | – | – | – | – | – | 1.01 | 0.946 | 0.62
HCC-366 | – | – | – | 0.277 | 0.572 | 0.734 | 0.399 | 0.449 | 0.378 | 0.394 | 0.355 | 0.473 | 0.372 | 0.231 | 1.07 | 0.926 | 1.12
NCI-H358 | 0.278 | 0.152 | 0.148 | 0.437 | 0.44 | 0.295 | 0.158 | 0.111 | 0.136 | 0.122 | 0.145 | 0.699 | 0.654 | 0.127 | – | – | –
NCI-H1944 | 0.708 | 0.726 | 0.8 | 0.492 | 0.514 | 0.6 | 0.333 | 0.353 | 0.35 | 0.32 | 0.355 | 0.609 | 0.566 | 0.595 | – | – | –
NCI-H1648 | – | – | – | 0.585 | 0.811 | 0.933 | 0.283 | 0.267 | 0.268 | 0.281 | 0.264 | 0.356 | 0.345 | 0.423 | – | – | –
EBC-1 | – | – | – | – | – | – | – | – | – | – | – | – | – | – | 0.592 | 0.546 | 0.358
NCI-H596 | 0.945 | 1.11 | 0.876 | 1.13 | 1.09 | 1.09 | – | – | – | – | – | 0.656 | 0.67 | 0.538 | 1 | 1.07 | 0.954
NCI-H1299 | – | – | – | – | – | – | – | – | – | – | – | – | – | – | 1.01 | 1.07 | 1.05
NCI-H2228 | 0.176 | 0.13 | 0.119 | – | – | – | 0.711 | 0.78 | 0.802 | 0.653 | 0.656 | 0.988 | 0.557 | 0.512 | 1.08 | 0.689 | 0.303
NCI-H2342 | 0.625 | 0.761 | 0.719 | 0.548 | 0.49 | 0.518 | 0.627 | 0.552 | 0.479 | 0.494 | 0.523 | 0.858 | 0.782 | 0.649 | – | – | –
IA-LM | – | – | – | – | – | – | – | – | – | – | – | 0.957 | 0.994 | 1.16 | 0.765 | 1.06 | 0.647
SK-MES-1 | 0.84 | 0.743 | 0.35 | – | – | – | 0.34 | 0.294 | 0.329 | 0.325 | 0.387 | 1.09 | 1.21 | 0.567 | – | – | –
NCI-H2170 | 0.578 | 0.728 | 0.521 | 0.899 | 1.04 | 0.724 | 0.374 | 0.41 | 0.391 | 0.38 | 0.355 | 0.823 | 0.86 | 0.744 | – | – | –
SW 1573 | 0.21 | 0.413 | 0.149 | – | – | – | 0.409 | 0.466 | 0.344 | 0.384 | 0.36 | 0.655 | 0.426 | 0.327 | 1.18 | 0.967 | 0.322
NCI-H661 | 0.905 | 0.845 | 0.805 | – | – | – | 0.412 | 0.402 | 0.39 | 0.416 | 0.433 | 0.761 | 0.755 | 0.767 | 0.808 | 0.805 | 0.802
NCI-H1793 | 0.188 | 0.179 | 0.153 | 0.6 | 0.667 | 0.615 | 0.333 | 0.295 | 0.337 | 0.339 | 0.363 | 0.807 | 1.02 | 0.654 | – | – | –
NCI-H520 | 0.255 | 0.247 | 0.214 | – | – | – | 0.222 | 0.224 | 0.24 | 0.193 | 0.258 | 0.775 | 0.681 | 0.304 | 0.52 | 0.541 | 0.277
NCI-H2023 | 0.747 | 0.661 | 0.272 | – | – | – | 0.461 | 0.414 | 0.391 | 0.345 | 0.297 | 0.613 | 0.667 | 0.343 | 1.09 | 1.02 | 0.668
NCI-H2009 | 1.15 | 1.05 | 0.685 | – | – | – | 0.236 | 0.147 | 0.265 | 0.186 | 0.272 | 0.724 | 0.95 | 0.688 | 1.09 | 1.05 | 0.638
